Results reported in article PMC9820303, “^αN-Acetyl β-Endorphin Is an Endogenous Ligand of σ1Rs That Regulates Mu-Opioid Receptor Signaling by Exchanging G Proteins for σ2Rs in σ1R Oligomers” (International Journal of Molecular Sciences, 2022).

Target: σ1R-σ2R (Mus musculus, UniProt O55242)
Test: In vitro σ1R-σ2R association of recombinant proteins (HaloLink-σ2R, Western blot)
Type: biochemical, murine
Parameters: The coding region of the full-length murine σ1R (AF004927); GST (N, cleaved yes); made in house; host or cells: E. coli BL21 (KRX)
Conditions: for effect on the disruption of σ1R-σ2R associations by β-End 1–31: fixed concentration of β-End 1–31 (or β-End 1–27), increasing competitor; for effect on σ1R-σ2R association: increasing concentrations, 30 min RT, vs control without ligand; for EC50 to disrupt σ1R-σ2R interactions (range in words): 50 mM Tris-HCl pH 7.4, 0.2% CHAPS, 2.5 mM CaCl2, 30 min RT, n = 3
Description: Figure 7 Effect of β-End 1–31, ^αN-acetyl β-End 1–31 and their N-terminal derivatives on σ1R-σ2R, σ1R-NR1 C1 and σ1R-BiP associations. Amino acid sequence of β-End 1–31 showing derivatives 1–26 and 1–27. (A) HaloLink-attached σ2Rs were incubated for 30 min at RT in the presence of σ1Rs (100 nM) in 300 μL of 50 mM Tris-HCl (pH 7.4), 0.2% CHAPS, and 2.5 mM CaCl2. After removing the unbound σ1R proteins, the effects of increasing the peptide concentrations on σ1R-σ2R associations were studied. At the end of the incubation, protein complexes bound to HaloLink-σ2R were obtained by centrifugation, washed three times, solubilized in 2× Laemmli buffer containing β-mercaptoethanol, resolved by SDS-PAGE, and analyzed by Western blotting (for more details, see Section 4). This protocol was also used to assess the effect of ligands on (B) σ1R-NR1 C1 and (C) σ1R-BiP associations. Data were compared to that of the control, which was obtained in the absence of ligands. (A–C) Data are the mean ± SD, n = 3. (D) The β-End 1–31 structural models were predicted by Novafold (DNASTAR Lasergene protein v.17, Inc., Madison, WI, USA). Ribbon model: The 3D structure, charge distribution and hydrophobicity map of β-End 1–31 are shown. Positive charges are shown in red and negative charges in blue. Polar surfaces are shown in yellow, and nonpolar surfaces are shown in orange. Linear model: the opioid (1–5) and flexible region (8–11) sequences are shown in green and orange, respectively, and the amphiphilic helix (15–25) is shown in pink.
The recombinant σ1R (100 nM) was incubated either with Haloprotein (negative control) or together with the immobilized σ2R, NR1 C0-C1-C2 or BiP proteins in 300 µL of a buffer containing 50 mM Tris-HCl (pH 7.4) and 0.2% CHAPS in the presence of 2.5 mM CaCl2 for 30 min at RT. After removal of the unbound σ1R, the agarose-attached complexes were incubated for 30 min with rotation at RT in the presence of increasing concentrations of the ligands in a final reaction volume of 300 µL [50 mM Tris-HCl (pH 7.4), 2.5 mM CaCl2 and 0.2% CHAPS]. Ligands were usually dissolved in aqueous solutions; however, when an organic solvent such as DMSO was required to incorporate, e.g., pregnenolone sulfate, the solvent remained below 1% in the assay buffer. Agarose pellets containing the bound proteins were obtained by centrifugation, washed and resuspended thrice in the presence of 2.5 mM CaCl2, solubilized in 2× Laemmli buffer plus β-mercaptoethanol, and analyzed by Western blotting.
Because all the assays were performed with recombinant proteins, the immune signals provided a single band of the expected size, which was used for the subsequent densitometry analysis. Accordingly, no other regions of the blots provided information and were routinely excluded from the analysis.
Figure S7. Effect of σ1R agonist/antagonist ligands on σ1R-σ2R heterodimers. (A-C) Agarose (Θ)- attached σ2Rs captured recombinant σ1Rs. After removing unbound σ1R proteins, the Θ-σ2R.σ1R complexes were incubated with a ﬁxed concentration of a selected L1 ligand (indicated in brackets) in the absence and presence of increasing concentrations of competing σ1R ligands as indicated. The σ1Rs that remained attached to the Θ-σ2Rs were evaluated by Western blotting. * Signiﬁcant differences with respect to the control group that was incubated without L1 ligands. ANOVA followed by the Holm-Sidak multiple comparisons test, p < 0.05. For details, see Methods and Figure 6A. Representative blots are […]
Figure S8. Effect of the physiological and nonphysiological sequences of β-End 1-31 and classical σ1R ligands on BiP-σ1R, σ2R-σ1R and NR1 C1-σ1R associations . Agarose-BiP was loaded with σ1Rs, and after the unbound σ1Rs were removed, the agarose-BiP-σ1R complexes were incubated in the absence (control) and presence of increasing concentrations of (A) β-End 1-31 C-terminal physiological derivatives and (B) classical σ1R ligands. C) Agarose-σ2R loaded with σ1Rs was incubated in the […]

Chain of σ1R-σ2R (O55242 whole entry): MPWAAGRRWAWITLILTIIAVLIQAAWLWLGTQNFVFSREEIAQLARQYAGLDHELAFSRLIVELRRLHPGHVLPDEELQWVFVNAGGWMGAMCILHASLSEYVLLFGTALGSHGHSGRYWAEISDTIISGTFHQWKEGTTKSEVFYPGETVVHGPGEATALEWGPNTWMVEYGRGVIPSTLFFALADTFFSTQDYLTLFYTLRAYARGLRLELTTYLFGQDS

KKGE [β-End 28–31, C-terminal tetrapeptide of β-End 1–31]
effect on the disruption of σ1R-σ2R associations by β-End 1–31: counteracted | effect on σ1R-σ2R association: promoted σ1R-σ2R associations

β-End 6–31: β-End 1–31 lacking the N-terminal met-enkephalin 1–5 sequence (TSEKSQTPLVTLFKNAIIKNAYKKGE; Beta-endorphin; UniProt P01189 242-267, looked up, fragment)
effect on σ1R-σ2R association: diminished σ1R-σ2R associations

^αN-acetyl β-End 1–31: β-End 1–31 acetylated at N terminal Y1, α position
affinity toward σ1R indicated by the potency to counteract the β-End 1–31 effect (competition with β-End 1–31 on σ1R-σ2R (Figure S7A)): fM range | effect on the disruption of σ1R-σ2R associations by β-End 1–31: antagonized | effect on σ1R-σ2R association: strengthened

β-End 1–27: β-End 1–31 derivative without 4 C-terminal residues (YGGFMTSEKSQTPLVTLFKNAIIKNAY; Beta-endorphin; UniProt P01189 237-263, looked up, fragment)
EC50 to disrupt σ1R-σ2R interactions (range in words): low–medium nM range

Br.Br.CN(C)CCN(C)CCc1ccc(Cl)c(Cl)c1 [BD1047, N′-[2-(3,4-dichlorophenyl)ethyl]-N,N,N′-trimethylethane-1,2-diamine;dihydrobromide, reference compound]
effect on σ1R-σ2R association: did the opposite

YKKGE [β-End 27–31, C-terminal pentapeptide of β-End 1–31]
effect on σ1R-σ2R association: reduced σ1R-σ2R

Cl.O=C(OCCN1CCOCC1)C1(c2ccccc2)CCCCC1 [PRE084, 2-(4-morpholinethyl)-1-phenylcyclohexanecarboxylate hydrochloride, reference compound]
effect on σ1R-σ2R association: impaired σ1R associations with σ2R and BiP

β-End 22–31: nonphysiological C-terminal sequence of β-End 1–31 (IIKNAYKKGE; Beta-endorphin; UniProt P01189 258-267, looked up, fragment)
effect on σ1R-σ2R association: promoted their association

COC(=O)[C@]1(c2ccc(C)cc2)C[C@@H]1CN1CCC(O)(c2ccccc2)CC1 [PPCC, (1R,2S/1S,2R)-2-[4-hydroxy-4-phenylpiperidin-1-yl)methyl]-1-(4-methylphenyl) cyclopropanecarboxylate, reference compound]
effect on σ1R-σ2R association: impaired σ1R associations with σ2R and BiP

β-End 1–26: β-End 1–31 derivative without 5 C-terminal residues (YGGFMTSEKSQTPLVTLFKNAIIKNA; Beta-endorphin; UniProt P01189 237-262, looked up, fragment)
EC50 to disrupt σ1R-σ2R interactions (range in words): low–medium nM range

Cc1cc(OCCN2CCOCC2)nn1-c1ccc2ccccc2c1 [S1RA]
effect on σ1R-σ2R association: did the opposite
